Measurements reported in paper PMC3153478, “Structural Basis for Species Specific Inhibition of 17β-Hydroxysteroid Dehydrogenase Type 1 (17β-HSD1): Computational Study and Biological Validation” (PLoS ONE, 2011).
Like-named read-outs stand apart in the source and are kept apart here.

Tests used:
human 17β-HSD1 = test system: human 17β-HSD1; set-up: method as in earlier work; details: Human placental, cytosolic fraction, substrate E1, 500 nM, cofactor NADH, 500 µM; ref literature (references indicated with the structural formulas in Fig. 3); read-out: Human IC50 17ß-HSD1; cited from earlier work
marmoset 17β-HSD1 = biological target: T1, marmoset 17β-HSD1 (Callithrix jacchus, UniProt Q9GME2); experiment: Inhibition of marmoset 17β-HSD1 (placental cytosolic fraction, tritiated E1, HPLC); format: biochemical, marmoset monkey (callithrix jacchus); details: for IC50: read-out: Marmoset IC50 17ß-HSD1
T1 construct: For the partial purification of 17β-HSD1, the cytosolic fraction was precipitated with ammonium sulfate; from tissue; host or cells: marmoset placenta, cytosolic fraction, ammonium sulfate precipitate
T1 sequence (Q9GME2 1-314): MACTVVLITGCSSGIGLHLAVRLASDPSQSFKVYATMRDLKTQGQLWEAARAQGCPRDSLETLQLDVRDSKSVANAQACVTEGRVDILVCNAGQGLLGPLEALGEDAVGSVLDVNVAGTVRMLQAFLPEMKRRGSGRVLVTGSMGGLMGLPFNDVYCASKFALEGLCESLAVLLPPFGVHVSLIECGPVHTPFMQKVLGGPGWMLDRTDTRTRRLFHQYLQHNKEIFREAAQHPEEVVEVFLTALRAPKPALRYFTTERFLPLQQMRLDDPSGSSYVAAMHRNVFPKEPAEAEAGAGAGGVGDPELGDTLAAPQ
Description: (§1) Marmoset placental tissue was used as enzyme source and the proteins were partially purified following a described procedure. Tritiated E1 was incubated with 17β-HSD1, cofactor and inhibitor. The separation of substrate and product was performed by HPLC. In an assay similar to the 17β-HSD1 test, marmoset placental microsomes containing 17β-HSD2 were incubated with tritiated E2 in the presence of NAD^+ and inhibitor. Labelled product was quantified after HPLC separation.
(§2) [2, 4, 6, 7-^3H]-E1 and [2, 4, 6, 7-^3H]-E2 were bought from Perkin Elmer, Boston. Quickszint Flow 302 scintillator fluid was bought from Zinsser Analytic, Frankfurt. Marmoset 17β-HSD1 and 17β-HSD2 were obtained from marmoset placenta according to previously described procedures. Fresh marmoset placenta was homogenized and cytosolic and microsomal fractions were separated by centrifugation. For the partial purification of 17β-HSD1, the cytosolic fraction was precipitated with ammonium sulfate. 17β-HSD2 was obtained from the microsomal fraction.
Inhibitory activities were evaluated by an established method with minor modifications. Briefly, the enzyme preparation was incubated with NADH [500 µM] in the presence of potential inhibitors at 37°C in a phosphate buffer (50 mM) supplemented with 20% of glycerol and EDTA (1 mM). Inhibitor stock solutions were prepared in DMSO. The final concentration of DMSO was adjusted to 1% in all samples. The enzymatic reaction was started by addition of a mixture of unlabelled- and [2, 4, 6, 7-^3H]-E1 (final concentration: 500 nM, 0.15 µCi). After 10 min, the reaction was stopped by the addition of HgCl2 (10 mM) and the mixture was extracted with diethylether. After evaporation, the steroids were dissolved in acetonitrile. E1 and E2 were separated using acetonitrile/water (45∶55) as mobile phase in a C18 reverse phase chromatography column (Nucleodur C18 Gravity, 3 µm, Macherey-Nagel, Düren) connected to an HPLC-system (Agilent 1200 Series, Agilent Technologies, Waldbronn). Detection and quantification of the steroids were performed using a radioflow detector (Agilent 1200 Series, Agilent Technologies, Waldbronn). The conversion rate was calculated after analysis of the resulting chromatograms according to the following equation: [drawing 1] . Each value was calculated from at least three independent experiments.

human 17β-HSD2 = test system: human 17β-HSD2; set-up: method as in earlier work; details: Human placental, microsomal fraction, substrate E2, 500 nM, cofactor NAD+, 1500 µM; ref literature (references indicated with the structural formulas in Fig. 3); read-out: Human IC50 17ß-HSD2; cited from earlier work
marmoset 17β-HSD2 = marmoset 17β-HSD2 (Callithrix jacchus, UniProt U3BEV1); experiment: Inhibition of marmoset 17β-HSD2 (placental microsomes, tritiated E2, HPLC); format: biochemical, marmoset monkey (callithrix jacchus); details: Logit transformed values calculated from % inhibition at 50 nM inhibitor concentration (trend for <30% or >70%), placental microsomal fraction, substrate E2 500 nM, NAD+ 1500 µM; for IC50: read-out: Marmoset IC50 17ß-HSD2
Chain of marmoset 17β-HSD2 (U3BEV1 entry or part of it): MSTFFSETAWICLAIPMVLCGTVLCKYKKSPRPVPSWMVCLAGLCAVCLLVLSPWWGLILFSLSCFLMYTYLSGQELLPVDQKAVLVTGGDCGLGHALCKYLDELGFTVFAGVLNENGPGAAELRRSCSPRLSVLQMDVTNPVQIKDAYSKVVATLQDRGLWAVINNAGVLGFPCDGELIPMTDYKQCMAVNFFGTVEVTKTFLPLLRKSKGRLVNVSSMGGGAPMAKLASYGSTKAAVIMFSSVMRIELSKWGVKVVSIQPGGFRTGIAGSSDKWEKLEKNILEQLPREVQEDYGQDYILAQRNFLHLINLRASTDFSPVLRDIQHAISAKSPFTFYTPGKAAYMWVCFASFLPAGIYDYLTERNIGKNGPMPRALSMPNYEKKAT
Description: as §1, §2
The 17β-HSD2 inhibition assay was performed similarly to the 17β-HSD1 procedure. The microsomal fraction was incubated with NAD^+ [1500 µM], test compound and a mixture of unlabelled- and [2, 4, 6, 7-^3H]-E2 (final concentration: 500 nM, 0.11 µCi) for 20 min at 37°C. Further treatment of the samples and HPLC separation was carried out as mentioned above. The conversion rate was calculated after analysis of the resulting chromatograms according to the following equation: [drawing 2] .

[1] = Logit transformed values calculated from % inhibition at 50 nM inhibitor concentration (trend for <30% or >70%), placental cytosolic fraction, substrate E1 500 nM, NADH 500 µM
[2] = Logit transformed values calculated from % inhibition, inhibitor concentration: 5 nM, placental cytosolic fraction, substrate E1 500 nM, NADH 500 µM

For Oc1cccc(-c2ccc3c(-c4cccc(O)c4)c(O)ccc3c2)c1 [Compound 15], the IC50 (human 17β-HSD1) is given as 36 nM, the IC50 (marmoset 17β-HSD1; [1]) is given as 32 nM and the IC50 (human 17β-HSD2) is given as 959 nM. The IC50 (marmoset 17β-HSD2) was over 50 nM.

For Cc1cc(-c2ccc(-c3cccc(O)c3)s2)ccc1O [Compound 4], the IC50 (human 17β-HSD1) is listed as 46 nM, the IC50 (marmoset 17β-HSD1; [1]) is listed as under 50 nM and the IC50 (human 17β-HSD2) is listed as 1970 nM. It also gave an IC50 (marmoset 17β-HSD2) of over 50 nM.

In the case of Oc1cc(F)cc(-c2ccc(-c3ccc(O)c(F)c3)s2)c1 [Compound 7], the IC50 (human 17β-HSD1) is listed as 17 nM, the IC50 (marmoset 17β-HSD1; [2]) is listed as under 5 nM and the IC50 (human 17β-HSD2) is listed as 218 nM. The IC50 (marmoset 17β-HSD2) was 43 nM.

For Oc1cccc(-c2ccc3c(-c4ccccc4)c(O)ccc3c2)c1 [Compound 17], the IC50 (human 17β-HSD1) is listed as 20 nM, the IC50 (marmoset 17β-HSD1; [1]) is listed as 52 nM and the IC50 (human 17β-HSD2) is listed as 540 nM. For the same molecule, the IC50 (marmoset 17β-HSD2) was over 50 nM.

For Oc1ccc(-c2cnc(-c3cccc(O)c3)s2)cc1 [Compound 2], the IC50 (human 17β-HSD1) is given as 50 nM, the IC50 (marmoset 17β-HSD1; [1]) is given as 102 nM and the IC50 (human 17β-HSD2) is given as 4000 nM. It also gave an IC50 (marmoset 17β-HSD2) of over 50 nM.

In the case of Oc1cccc(-c2ccc3c(-c4cccnc4)c(O)ccc3c2)c1 [Compound 16], the IC50 (human 17β-HSD1) is given as 26 nM, the IC50 (marmoset 17β-HSD1; [1]) is given as over 50 nM and the IC50 (human 17β-HSD2) is given as 1160 nM. For the same molecule, the IC50 (marmoset 17β-HSD2) was over 50 nM.

In the case of CC(=O)Nc1cccc(-c2c(O)ccc3cc(-c4cccc(O)c4)ccc23)c1 [Compound 20], the IC50 (human 17β-HSD1) is given as 83 nM, the IC50 (marmoset 17β-HSD1; [1]) is given as over 50 nM and the IC50 (human 17β-HSD2) is given as 1240 nM. For the same molecule, the “Marmoset IC50 17ß-HSD2” value (marmoset 17β-HSD2) was “n.i”.

For O=C(c1cccc(O)c1)c1ccc(-c2ccc(O)cc2)s1 [Compound 12], the IC50 (human 17β-HSD1) is given as 33 nM, the IC50 (marmoset 17β-HSD1; [1]) is given as under 50 nM and the “Inhibitory potency toward marmoset 17β-HSD1 compared to the human enzyme” value (marmoset 17β-HSD1; comparison in words, marmoset vs human 17β-HSD1) is given as “Comparable inhibition data”. For the same molecule, the IC50 (human 17β-HSD2) was 478 nM and the IC50 (marmoset 17β-HSD2) was 43 nM.

For Nc1cccc(-c2c(O)ccc3cc(-c4cccc(O)c4)ccc23)c1 [Compound 18], the IC50 (human 17β-HSD1) is given as 53 nM, the “Marmoset IC50 17ß-HSD1” value (marmoset 17β-HSD1; [1]) is given as “n.i” and the IC50 (marmoset 17β-HSD2) is given as over 50 nM.

For CS(=O)(=O)Nc1cccc(-c2c(O)ccc3cc(-c4cccc(O)c4)ccc23)c1 [Compound 19], the IC50 (human 17β-HSD1) is given as 15 nM, the IC50 (marmoset 17β-HSD1; [1]) is given as over 50 nM and the IC50 (human 17β-HSD2) is given as 403 nM. For the same molecule, the IC50 (marmoset 17β-HSD2) was over 50 nM.

In the case of Oc1ccc(-c2ccc(-c3cccc(O)c3)s2)cc1 [Compound 3], the IC50 (human 17β-HSD1) is listed as 69 nM, the IC50 (marmoset 17β-HSD1; [1]) is listed as 31 nM and the IC50 (human 17β-HSD2) is listed as 1950 nM. For the same molecule, the IC50 (marmoset 17β-HSD2) was over 50 nM.

In the case of Cc1cc(-c2cnc(-c3cccc(O)c3)s2)ccc1O [Compound 5], the IC50 (human 17β-HSD1) is given as 143 nM, the IC50 (marmoset 17β-HSD1; [1]) is given as under 50 nM and the IC50 (human 17β-HSD2) is given as 2020 nM. For the same molecule, the IC50 (marmoset 17β-HSD2) was over 50 nM.

For Oc1cccc(-c2ccc(-c3ccc(O)c(F)c3)s2)c1 [Compound 1], the IC50 (human 17β-HSD1) is listed as 8 nM, the IC50 (marmoset 17β-HSD1; [2]) is listed as under 5 nM and the IC50 (human 17β-HSD2) is listed as 940 nM. For the same molecule, the IC50 (marmoset 17β-HSD2) was over 50 nM.

For Oc1cccc(-c2ccc3cc(O)ccc3c2)c1 [Compound 14], the IC50 (human 17β-HSD1) is given as 116 nM, the IC50 (marmoset 17β-HSD1) is given as over 50 nM and the IC50 (human 17β-HSD2) is given as 5640 nM.

In the case of Oc1ccc(-c2ccc(-c3cc(O)cc(F)c3)s2)cc1 [Compound 6], the IC50 (human 17β-HSD1) is listed as 42 nM, the IC50 (marmoset 17β-HSD1; [2]) is listed as under 5 nM and the IC50 (human 17β-HSD2) is listed as 463 nM. It also gave an IC50 (marmoset 17β-HSD2) of 85 nM.
